Values quoted from earlier work, collected in US6572638B1, “Method of controlling body temperature while inhibiting thermoregulatory responses” (Radiant Medical, Inc., priority 1999, dated 2003).

Test system: shivering threshold
Conditions: patients at normal temperature warmed until sweating then cooled until shivering occurred; Talke, et al., Anesthesiology 87(4):835-841, 1997

Compound	effect on shivering threshold
Clc1cccc(Cl)c1N=C1NCCN1 [clonidine]	able to lower the shivering threshold
Cc1cccc([C@H](C)c2cnc[nH]2)c1C [dexmedetomidine]	able to lower the shivering threshold
